Broadly, the Kd is the free concentration of one partner at which half of the binding sites on the other are occupied at equilibrium, for simple one-to-one binding. A low value points to a tighter complex.

From patent US20140286964A1, “Methods for Identifying Janus Kinase (JAK) Modulators for Therapeutics” (NEW YORK UNIVERSITY, priority 2011, published 2014) come the findings set out here.

Assay [1] has as its target T1, insulin receptor kinase (phosphorylated, active form) (Homo sapiens, UniProt P06213).
T1 construct: the insulin receptor kinase (phosphorylated, active form)
Nature of the assay: mant-ATP binding to insulin receptor kinase (comparison).

The target of another assay is T2, Jak2 JH2-VF (V617F) (Homo sapiens, UniProt O60674, F794H/V617F/W777A).
T2 construct: 6xHis (N); made in house; host or cells: baculovirus-infected Sf9 cells
Kind of assay: mant-ATP binding to JH2-VF. To be noted: fluorescent ATP analog mant-ATP. The source says: (§1) As a first step in characterizing the catalytic properties of Jak2 JH2, dissociation constants (Kd values) for ATP binding to JH2-WT and -VF were obtained using the fluorescent ATP analog mant-ATP.

The target in the next assay is T3, JAK2 JH2 (JH2-Peak2) (Homo sapiens, UniProt O60674).
T3 construct: We produced and purified human Jak2 JH2, residues 513-824, as described previously; 6xHis (C, cleaved yes); made in house; host or cells: Sf9 insect cells (baculovirus, pFASTBAC1)
Kind of assay: Mant-ATP binding assay (fluorescence) with JH2-Peak2. Here is the method:
FIG. 13 provides an analysis of JAK2 JH2 autophosphorylation and ATP binding activity. (a) Time-course kinase assay of purified JH2-Peak1 and JH2-Peak2. (b) Time-course kinase assay of purified JH2 S523A and Y570F mutants compared to JH2-Peak2. (c) Fluorescence measurement of ATP binding assay of JAK2 JH2-Peak2. (d) Kd measurement of mant-ATP binding to JH2-Peak2. Graph, mean±s.d. of three independent experiments.
The fluorescence intensity of mant-ATP (Invitrogen) complex with JH2 was measured using FluoroMax-2 spectrofluorimeter. Mant-ATP (1 μM) was added to a buffer solution (20 mM TRIS-HCl, pH 8, 200 mM NaCl, 10% (v/v) glycerol and 0.5 mM TCEP) along with 5 mM MnCl2 and 1 μM JH2 (from peak 2 fraction). The excitation and emission wavelengths were 280 nm and 440 nm, respectively, and emission was scanned from 400-500 nm. For kd measurements, increased concentration of purified JH2 (0.25 μM-6 μM) was added to buffer solution with 5 mM MnCl2 and 1 μM mant-ATP.
If the pseudokinase domain of JAK2 is an active protein kinase, utilizing ATP as a phosphate donor, it should bind ATP with a physiologic Kd value. The binding of ATP to JH2 of JAK2 was evaluated using the fluorescent ATP-analogue mant [2′-(3′)—O—(N-methylanthraniloy)]-ATP. […] Mant-ATP bound to JH2 with a Kd of ˜1 μM (FIG. 13d), which is ˜10% of the reported Kd for JH1 of JAK2 (Hall, et al., Protein Expr. Purif. 2010; 69: 54-63). […]

A further assay deals with T4, Jak2 JH2-WT (Homo sapiens, UniProt O60674, F794H/W659A/W777A).
T4 construct: 6xHis (N); made in house; host or cells: baculovirus-infected Sf9 cells
Nature of the assay: mant-ATP binding (decrease of tryptophan emission by FRET) to JH2-WT. Particulars: fluorescent ATP analog mant-ATP, FIG. 5. The protocol: FIG. 5 depicts ATP binding to JH2-WT. The decrease of the tryptophan emission signal at 340 nm (excitation wavelength at 285 nm) resulting from FRET upon mant-ATP binding to JH2 was measured as a function of mant-ATP concentration. The plotted data points are an average of two experiments.
as §1

T3 sequence (O60674 513-824): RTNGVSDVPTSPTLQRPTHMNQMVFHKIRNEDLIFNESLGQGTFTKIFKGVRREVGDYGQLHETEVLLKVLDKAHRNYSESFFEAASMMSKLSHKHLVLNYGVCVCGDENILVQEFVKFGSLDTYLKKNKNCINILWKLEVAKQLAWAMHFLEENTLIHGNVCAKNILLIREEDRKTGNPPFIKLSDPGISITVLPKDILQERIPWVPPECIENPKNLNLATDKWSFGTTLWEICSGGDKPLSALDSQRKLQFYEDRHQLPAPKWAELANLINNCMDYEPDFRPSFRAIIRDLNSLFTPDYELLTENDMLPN
T1 sequence (P06213 1023-1298 limits assumed): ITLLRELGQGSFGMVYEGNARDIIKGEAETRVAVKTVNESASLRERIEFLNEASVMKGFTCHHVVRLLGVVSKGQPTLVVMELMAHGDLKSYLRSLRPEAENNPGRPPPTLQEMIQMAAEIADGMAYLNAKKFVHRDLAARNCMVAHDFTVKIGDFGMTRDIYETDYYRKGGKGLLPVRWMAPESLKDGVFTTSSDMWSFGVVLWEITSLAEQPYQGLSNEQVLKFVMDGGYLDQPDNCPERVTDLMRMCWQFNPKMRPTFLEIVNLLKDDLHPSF
T4 sequence (O60674 536-812 W659A/W777A/F794H): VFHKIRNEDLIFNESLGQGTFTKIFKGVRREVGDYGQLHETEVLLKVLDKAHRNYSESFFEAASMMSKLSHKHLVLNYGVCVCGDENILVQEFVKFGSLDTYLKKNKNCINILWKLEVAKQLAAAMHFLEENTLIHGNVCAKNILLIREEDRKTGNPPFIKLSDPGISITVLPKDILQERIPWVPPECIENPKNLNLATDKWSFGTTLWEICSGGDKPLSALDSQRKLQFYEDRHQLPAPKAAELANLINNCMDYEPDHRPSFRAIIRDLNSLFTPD
T2 sequence (O60674 536-812 V617F/W777A/F794H): as the sequence (O60674 536-812 W659A/W777A/F794H) above, with V82F, A124W counted along it

Regarding “mant [2′-(3′)—O—(N-methylanthraniloy)]-ATP [mant-ATP]”, the “Kd fold higher than for JH2” value in assay [1] (insulin receptor kinase Kd versus Jak2 JH2 Kd) is around 30 fold. The Kd is 14000 nM in assay [1] (insulin receptor kinase, phosphorylated active form, same measurement); 84 nM at Jak2 JH2-VF (V617F); around 1000 nM at JAK2 JH2 (JH2-Peak2) (JH2-Peak2, 5 mM MnCl2, 1 μM mant-ATP, JH2 0.25-6 μM, FIG. 13d); 82 nM on Jak2 JH2-WT. Further, the “Kd as percentage of the reported Kd for JH1 of JAK2” value on JAK2 JH2 (JH2-Peak2) (JH2 Kd versus literature Kd for JH1 (Hall et al. 2010)) is given as around 10%.
